Experimental data published in US9128097B2, “Method and kit for assessing viable cells” (ChemoMetec A/S, priority 2008, dated 2015).

Key:
[1] = tested on: Jurkat (JM) cells; assay: Staining of proliferating Jurkat cells with labelling agent and propidium iodide, fluorescence microscopy; type: cell-based; conditions: 10 μL agent (100 μg pr. mL DMSO) added to 90 μL cells, only exception PI positive cells
Method: (§1) Materials and Methods. Jurkat (JM) cells were grown at 37° C. in a humidified air atmosphere with 5% CO2 in RPMI (Invitrogen, #61870) supplemented with 10% heat-inactivated fetal bovine serum (Invitrogen, #10108-165). 90 μL proliferating Jurkat cells (cell density 1.2×10^6, 99% viable determined using the NC-100 NucleoCounter system following the manufacturer's (ChemoMetec A/S) protocol) were added 10 μL NAM (N-(9-acridinyl)maleimide, Sigma, #01665, CAS no. 49759-20-8) dissolved in DMSO (100 μg NAM pr. mL DMSO) and mixed by pipetting. Cells were loaded into a NucleoCassette, containing the DNA stain propidium iodide (PI). The cells were investigated using an Olympus IX50 fluorescence microscope, and images were captured using a Lumenera CCD camera and in-house developed software. PI and NAM fluorescence were detected using, respectively, U-MWG2 (green long pass: 510-550 nm) and U-MNUA2 (UV band pass, 330-385 nm) filter cubes (Olympus).
as §1, with “1.0×10^6,” for “1.2×10^6,”, “(ChemoMetec)” for “(ChemoMetec A/S)”, “CPM (7-diethylamino-3-[4′-maleimidylphenyl]-4-methylcoumarin, Chemodex Ltd.,” for “NAM (N-(9-acridinyl)maleimide, Sigma, #01665,”, “76877-33-3)” for “49759-20-8)”, “CPM” for “NAM”
as §1, with “1.1×10^6, 98%” for “1.2×10^6, 99%”, “(ChemoMetec)” for “(ChemoMetec A/S)”, “PM (N-(1-Pyrenyl)maleimide, Sigma P7908” for “NAM (N-(9-acridinyl)maleimide, Sigma, #01665,”, “42189-56-0)” for “49759-20-8)”, “PM” for “NAM”, “Cells were loaded into a NucleoCassette, containing the DNA stain propidium iodide (PI).” left out
Materials and Methods. […] 90 μL proliferating Jurkat cells (cell density 1.1×10^6, 98% viable determined using the NC-100 NucleoCounter system following the manufacturer's (ChemoMetec) protocol) were added 10 μL CPI (7-diethylamino-3-((4′-(iodoacetyl)amino)phenyl)-4-methylcoumarin, Sigma 78264 CAS no. 76877-34-4) dissolved in DMSO (100 μg CPI pr. mL DMSO) and mixed by pipetting. […] The cells were investigated using an Olympus IX50 fluorescence microscope, and images were captured using a Lumenera CCD camera and in-house developed software. PI and CPI fluorescence were detected using, respectively, U-MWG2 (green long pass: 510-550 nm) and U-MNUA2 (UV band pass, 330-385 nm) filter cubes (Olympus). […]

[2] = tested on: HEK293 cells; assay: NAM/PI staining of outgrown HEK293 cells, fluorescence microscopy; type: cell-based, Human; conditions: 10 μg/mL NAM
Method: Materials and Methods. HEK293 cells were grown at 37° C. in a humidified air atmosphere with 5% CO2 in DMEM (Invitrogen, #31966) supplemented with 10% heat-inactivated fetal bovine serum (Invitrogen, #10108-165). Cells were harvested with 0.5 mL of trypsin (Invitrogen, #25300) and neutralized with 5 mL medium (DMEM+10% FCS) two days after they had reached full confluency. These outgrown HEK293 cells (cell density 1.6×10^6, 78% viable determined using the NC-100 NucleoCounter system following the manufacturer's (ChemoMetec) protocol) were stained with 10 μg/mL NAM (Sigma, #01665). Another cell sample were treated with 0.25% Triton X-100 (Sigma, #T9284) and hereafter added 10 μg/mL NAM. After staining, each cell sample was loaded into a NucleoCassette, containing the DNA stain propidium iodide (PI). The cells were investigated using an Olympus IX50 fluorescence microscope, and images were captured using a Lumenera CCD camera and in-house developed software. PI and NAM fluorescence were detected using, respectively, U-MWG2 (green long pass: 510-550 nm) and U-MNUA2 (UV band pass, 330-385 nm) filter cubes (Olympus).

[3] = tested on: Drosophila S2 cells; assay: NAM/PI staining of Drosophila S2 cells, fluorescence microscopy; type: cell-based, Drosophila melanogaster; conditions: S2 cells diluted 10 times in PBS; 10 μg/mL NAM
Method: Materials and Methods. Drosophila S2 cells were grown at 28° C. without shaking in Schneider's Drosophila medium (Invitrogen, #21720) supplemented with 10% heat-inactivated fetal bovine serum (Invitrogen, #10108-165). S2 cells (cell density 1.7×10^7, 99% viable determined using the YC-100 NucleoCounter system with diploid settings following the manufacturer's (ChemoMetec) protocol) were diluted 10 times in PBS and stained with 10 μg/mL NAM (Sigma, #01665). Cells were loaded into a NucleoCassette, containing the DNA stain propidium iodide (PI). The cells were investigated using an Olympus IX50 fluorescence microscope, and images were captured using a Lumenera CCD camera and in-house developed software. PI and NAM fluorescence were detected using, respectively, U-MWG2 (green long pass: 510-550 nm) and U-MNUA2 (UV band pass, 330-385 nm) filter cubes (Olympus).

## O=C1C=CC(=O)N1c1c2ccccc2nc2ccccc12 [NAM, N-(9-acridinyl)maleimide]
[1]
  staining of cells (UV filter) versus PI positive cells: nearly all cells in the proliferating Jurkat cell culture were stained by NAM
[2]; HEK293 cells treated with 0.25% Triton X-100
  staining of Triton X-100 treated cells: NAM negative
[2]; outgrown HEK293 cells, 78% viable
  staining of cells versus PI: NAM and PI were found to complementary stain the outgrown HEK293 cells
[3]
  staining of cells versus PI: NAM and PI were found to complementary stain S2 cells
